# From patent publication US20250109127A1, “METHODS OF USE OF PHENOXYPROPYLAMINE COMPOUNDS TO TREAT DEPRESSION” (Minerva Neurosciences, Inc., priority 2013, published 2025)
# Several values for one entry are separate records, joined by “and”; a condition that tells them apart may be missing. Equal entries are not always repeated. Structures can show the parent of a compound that is named as a salt.
# System: DOPAC release in the rat prefrontal cortex
# Experiment: Microdialysis: DOPAC release in prefrontal cortex after I.P. administration
# Type: in vivo
# Details: for DOPAC (% of respective basal), individual animal: 0.1 mg/kg I.P., c2-c9 = R#13,14,20,19,25,26,31,32; for DOPAC (% of respective basal), individual animal / DOPAC release, individual animals: hydrochloride; for DOPAC release, MEAN / DOPAC release, individual animals: 3 mg/kg IP; for DOPAC release, MEAN: n = 8; for DOPAC release, individual animals: per animal R#15,16,21,22,27,28,09,10
# Protocol: The aim of the study was to evaluate, using microdialysis, the effects of an intraperitoneal (I.P.) administration in rats of three different doses of SON-117 on dopamine and its metabolites, serotonin and its metabolite (5-HIAA), and norepinephrine levels in prefrontal cortex.
# Thirty-two adult male Wistar rats were used for the whole study (4 groups of eight animals planned for the study, Table 1).
# Surgery was performed on rats weighing about 300 g at the beginning of the experiments. Rats were anaesthetized with Ketamine (50 mg/kg) & Xylazine (15 mg/kg) by intramuscular administration. The animals were placed in a stereotaxic apparatus in the flat-skull position at a constant setting of −3.3 mm between ear bars and the incisor bar. The animals were treated with a local anesthesic (xylocaine 1%, Astra Zeneca) and an analgesic (Temgesic, from Schering Plough, 0.05 mg/kg, s.c.). A rostrocaudal midline incision was made with a lancet to expose the dorsal skull surface. The “stereotaxic zero” was defined by the Bregma in accordance with Paxinos and Watson's atlas (1986). A hole was drilled in the skull with a drill and the meninges were pierced with a sterile needle to implant a CMA12 guide cannula which later received the dialysis probe.
# Coordinates used for implanting guide cannula in prefrontal cortex from Bregma were anteroposterior 3.7 mm, mediolateral 0.8 mm, and dorsoventral −2 mm (top of the probe was at −5 mm). The guide cannula was fixed to the skull with two stainless steel screws (1.88 mm outside diameter) anchored. An application of dental cement was added. A plastic collar allowed each animal to be tethered to a Swivel assembly of the CMA 120 awake animal system. Following surgery, rats were kept in individual cages and allowed to recover for a minimum of 3-5 days before the experimentation. The rats were handled and put in plastic bowl for 10 min at least every day to habituate the animals to their new environment for the dialysis. An I.P. administration with saline was also performed every day.
# Dialysis probes (CMA12/3 mm, membrane, 20 kD cut-off, Carnegie Medicine, Stockholm, Sweden), were carefully washed before inserting into the guide cannula. The wash was performed with the artificial cerebrospinal fluid (aCSF) medium (NaCl 147 mM, KCl 2.7 mM, CaCl2 1.2 mM, MgCl2 0.85 mM) at room temperature. The dialysis system was then equilibrated at 20° C. at a perfusion rate of 1 μl/min with a Carnegie pump (CMA100). All catheters (FEP tubing, internal volume of 1.2 μl/10 cm, and tubing adaptors) used for microdialysis were treated in the same conditions.
# The probes duly prepared were inserted into the guide cannula and the CMA120 Swivel assembly secured to the animal using a plastic collar. Flow through the dialysis probe with aCSF was maintained at a rate of 1 μl/min during the whole experimentation. The first four fractions (corresponding to 2 hours) were discarded to avoid the effects of parenchymal disturbance and to ensure that an approximate steady-state level was reached. Fractions were then collected over a period of 8.5 h during which time the animals remained quiet. The dialysates were automatically collected with an autosampler (microfraction collector CMA 140, Carnegie Medicin) and stored at −80° C. until analysis. […] Perfusion was then maintained for 7 hours with aCSF. The dialysates (30 μl) were collected into 300 μl vials, transferred into dry ice and then kept frozen (−80° C.) until analysis. Frozen samples were shipped to a partner for analysis. At the end of the microdialysis study, a PBS with colored ink was perfused through the probe in order to visualize the dialyzed area.
# Catecholamine assay: Concentrations of dopamine, DOPAC, HVA, 5-HIAA, 5-HT, and norepinephrin were determined for each sample by HPLC coupled with electrochemical detection.
compound,measurement,setting,value
"Cc1nnc(-c2cc3c(OC[C@@H](O)CN4CCC(c5ccc(Cl)c(Cl)c5)CC4)cccc3o2)o1 [SON-117, (S)-1-(4-(3,4-dichlorophenyl)piperidino)-3-(2-(5-methyl-1,3,4-oxadiazol-2-yl)benzo(b)furan-4-yloxy)-2-propanol hydrochloride]","DOPAC (% of respective basal), individual animal",T30-T1 h,90.11 % of respective basal and 105.88 % of respective basal and 110.45 % of respective basal and 113.21 % of respective basal and 95.59 % of respective basal and 110.39 % of respective basal and 128.2 % of respective basal and 82.35 % of respective basal
same,"DOPAC (% of respective basal), individual animal",T1 h 30-T2 h,101.64 % of respective basal and 109.71 % of respective basal and 83.87 % of respective basal and 449.73 % of respective basal and 128.96 % of respective basal and 72.88 % of respective basal and 153.26 % of respective basal and 56.49 % of respective basal
same,"DOPAC (% of respective basal), individual animal",T1 h-T1 h 30,79.47 % of respective basal and 158.61 % of respective basal and 92.14 % of respective basal and 126.98 % of respective basal and 119.92 % of respective basal and 119.37 % of respective basal and 135.5 % of respective basal and 66.42 % of respective basal
same,"DOPAC (% of respective basal), individual animal",T2 h 30-T3 h,60.75 % of respective basal and 112.82 % of respective basal and 69.17 % of respective basal and 79.31 % of respective basal and 152.5 % of respective basal and 113.62 % of respective basal and 142.16 % of respective basal and 23.28 % of respective basal
same,"DOPAC (% of respective basal), individual animal",T2 h-T2 h 30,176.59 % of respective basal and 43.90 % of respective basal and 80.18 % of respective basal and 123.61 % of respective basal and 132.53 % of respective basal and 78.83 % of respective basal and 142.03 % of respective basal and 39.56 % of respective basal
same,"DOPAC (% of respective basal), individual animal",T3 h 30-T4 h,53.09 % of respective basal and 116.09 % of respective basal and 68.59 % of respective basal and 73.49 % of respective basal and 180.72 % of respective basal and 107.13 % of respective basal and 128.91 % of respective basal and 40.67 % of respective basal
same,"DOPAC (% of respective basal), individual animal",T3 h-T3 h 30,80.45 % of respective basal and 87.7 % of respective basal and 65.69 % of respective basal and 75.20 % of respective basal and 134.32 % of respective basal and 93.13 % of respective basal and 140.15 % of respective basal and 50.88 % of respective basal
same,"DOPAC (% of respective basal), individual animal",T4 h 30-T5 h,304.57 % of respective basal and 95.87 % of respective basal and 47.53 % of respective basal and 20.13 % of respective basal and 163.90 % of respective basal and 118.96 % of respective basal and 157.11 % of respective basal and 54.52 % of respective basal
same,"DOPAC (% of respective basal), individual animal",T4 h-T4 h 30,345.4 % of respective basal and 109.04 % of respective basal and 79.96 % of respective basal and 110.35 % of respective basal and 164.47 % of respective basal and 110.81 % of respective basal and 148.54 % of respective basal and 71.60 % of respective basal
same,"DOPAC (% of respective basal), individual animal",T5 h 30-T6 h,316.35 % of respective basal and 107.67 % of respective basal and 58.65 % of respective basal and 83.02 % of respective basal and 133.93 % of respective basal and 99.81 % of respective basal and 135.88 % of respective basal and 46.79 % of respective basal
same,"DOPAC (% of respective basal), individual animal",T5 h-T5 h 30,342.56 % of respective basal and 121.60 % of respective basal and 61.68 % of respective basal and 79.4 % of respective basal and 139.09 % of respective basal and 96.46 % of respective basal and 144.84 % of respective basal and 50.64 % of respective basal
same,"DOPAC (% of respective basal), individual animal",T6 h 30-T7 h,344.74 % of respective basal and 120.8 % of respective basal and 139.44 % of respective basal and 80.52 % of respective basal
same,"DOPAC (% of respective basal), individual animal",T6 h-T6 h 30,362.18 % of respective basal and 142.01 % of respective basal and 23.55 % of respective basal and 82.92 % of respective basal and 136.09 % of respective basal and 101.05 % of respective basal and 125.76 % of respective basal and 48.95 % of respective basal
same,"DOPAC release, MEAN",T0-T30 min,87.96 % of respective basal
same,"DOPAC release, MEAN",T30-T1 h,90.03 % of respective basal
same,"DOPAC release, individual animals",T30-T1 h,101.17 % of respective basal and 98.27 % of respective basal and 70.16 % of respective basal and 93.38 % of respective basal and 83.10 % of respective basal and 96.90 % of respective basal and 90.68 % of respective basal and 86.57 % of respective basal
same,"DOPAC release, MEAN",T1 h 30-T2 h,109.73 % of respective basal
same,"DOPAC release, individual animals",T1 h 30-T2 h,148.73 % of respective basal and 196.92 % of respective basal and 78.99 % of respective basal and 114.35 % of respective basal and 65.05 % of respective basal and 98.86 % of respective basal and 85.04 % of respective basal and 87.02 % of respective basal
same,"DOPAC release, MEAN",T1 h-T1 h 30,107.74 % of respective basal
same,"DOPAC release, individual animals",T1 h-T1 h 30,183.03 % of respective basal and 117.43 % of respective basal and 106.09 % of respective basal and 101.67 % of respective basal and 88.00 % of respective basal and 90.78 % of respective basal and 85.51 % of respective basal and 89.44 % of respective basal
same,"DOPAC release, MEAN",T2 h 30-T3 h,92.73 % of respective basal
same,"DOPAC release, individual animals",T2 h 30-T3 h,122.00 % of respective basal and 99.60 % of respective basal and 70.87 % of respective basal and 93.90 % of respective basal and 65.07 % of respective basal and 108.76 % of respective basal and 94.51 % of respective basal and 87.10 % of respective basal
same,"DOPAC release, MEAN",T2 h-T2 h 30,95.46 % of respective basal
same,"DOPAC release, individual animals",T2 h-T2 h 30,111.98 % of respective basal and 121.35 % of respective basal and 63.44 % of respective basal and 89.04 % of respective basal and 75.53 % of respective basal and 92.91 % of respective basal and 122.88 % of respective basal and 86.52 % of respective basal
same,"DOPAC release, MEAN",T3 h 30-T4 h,94.20 % of respective basal
same,"DOPAC release, individual animals",T3 h 30-T4 h,111.27 % of respective basal and 111.84 % of respective basal and 80.10 % of respective basal and 101.37 % of respective basal and 69.94 % of respective basal and 101.03 % of respective basal and 82.44 % of respective basal and 95.58 % of respective basal
same,"DOPAC release, MEAN",T3 h-T3 h 30,102.63 % of respective basal
same,"DOPAC release, individual animals",T3 h-T3 h 30,114.26 % of respective basal and 115.76 % of respective basal and 98.98 % of respective basal and 103.32 % of respective basal and 65.78 % of respective basal and 96.52 % of respective basal and 80.53 % of respective basal and 145.86 % of respective basal
same,"DOPAC release, MEAN",T4 h 30-T5 h,90.86 % of respective basal
same,"DOPAC release, individual animals",T4 h 30-T5 h,99.05 % of respective basal and 111.45 % of respective basal and 86.88 % of respective basal and 84.18 % of respective basal and 65.99 % of respective basal and 114.07 % of respective basal and 88.90 % of respective basal and 76.33 % of respective basal
same,"DOPAC release, MEAN",T4 h-T4 h 30,97.50 % of respective basal
same,"DOPAC release, individual animals",T4 h-T4 h 30,114.70 % of respective basal and 111.85 % of respective basal and 76.78 % of respective basal and 121.97 % of respective basal and 69.65 % of respective basal and 96.91 % of respective basal and 88.65 % of respective basal and 99.52 % of respective basal
same,"DOPAC release, MEAN",T5 h 30-T6 h,93.52 % of respective basal
same,"DOPAC release, individual animals",T5 h 30-T6 h,100.08 % of respective basal and 108.82 % of respective basal and 106.21 % of respective basal and 79.12 % of respective basal and 64.79 % of respective basal and 94.19 % of respective basal and 96.33 % of respective basal and 96.49 % of respective basal
same,"DOPAC release, MEAN",T5 h-T5 h 30,105.66 % of respective basal
same,"DOPAC release, individual animals",T5 h-T5 h 30,96.11 % of respective basal and 118.05 % of respective basal and 106.17 % of respective basal and 90.70 % of respective basal and 68.08 % of respective basal and 136.44 % of respective basal and 128.39 % of respective basal and 101.33 % of respective basal
same,"DOPAC release, MEAN",T6 h 30-T7 h,101.08 % of respective basal
same,"DOPAC release, individual animals",T6 h 30-T7 h,100.91 % of respective basal and 128.07 % of respective basal and 103.29 % of respective basal and 98.33 % of respective basal and 67.98 % of respective basal
same,"DOPAC release, MEAN",T6 h-T6 h 30,97.93 % of respective basal
same,"DOPAC release, individual animals",T6 h-T6 h 30,89.69 % of respective basal and 125.97 % of respective basal and 108.08 % of respective basal and 99.61 % of respective basal and 70.30 % of respective basal and 104.34 % of respective basal and 87.50 % of respective basal
same,"DOPAC release, MEAN",T-30 min-T0 (before administration),94.88 % of respective basal
